{
  "source": "ChEMBL document CHEMBL1201862",
  "about": "“PubChem BioAssay data set” (2004)",
  "key": {"[1]": {"target": "T1, Sentrin-specific protease 1 (Homo sapiens, UniProt Q9P0U3)", "T1 sequence (Q9P0U3 whole entry)": "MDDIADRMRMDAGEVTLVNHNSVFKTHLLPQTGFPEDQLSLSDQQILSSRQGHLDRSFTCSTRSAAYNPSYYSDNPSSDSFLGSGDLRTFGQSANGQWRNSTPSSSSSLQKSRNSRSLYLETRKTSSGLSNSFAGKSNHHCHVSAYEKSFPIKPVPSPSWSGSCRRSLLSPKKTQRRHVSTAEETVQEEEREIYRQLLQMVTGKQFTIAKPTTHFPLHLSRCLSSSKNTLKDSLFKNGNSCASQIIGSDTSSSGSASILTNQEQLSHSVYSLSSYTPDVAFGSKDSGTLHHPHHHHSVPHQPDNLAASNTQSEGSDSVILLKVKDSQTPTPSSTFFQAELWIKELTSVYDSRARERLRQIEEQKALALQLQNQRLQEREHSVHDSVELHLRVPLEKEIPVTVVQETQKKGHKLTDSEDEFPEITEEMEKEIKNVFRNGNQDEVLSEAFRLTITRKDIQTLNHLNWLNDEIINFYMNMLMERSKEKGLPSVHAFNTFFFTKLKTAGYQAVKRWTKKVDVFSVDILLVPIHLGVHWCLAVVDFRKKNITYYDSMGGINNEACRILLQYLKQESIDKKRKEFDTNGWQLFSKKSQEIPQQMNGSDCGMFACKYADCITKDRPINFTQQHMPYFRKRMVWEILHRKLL", "assay": "Dose response confirmation of small molecule inhibitors of the catalytic domain of the SUMO protease, SENP1 in a FRET assay.", "assay_type": "functional", "details": "read-out: IC50_Mean"}, "[2]": {"target": "T1, Sentrin-specific protease 1", "assay": "SENP1 catalytic domain blockers, concentration series – biochemical, kinetic FRET, dose response (AID 651697)", "assay_type": "functional", "details": "read-out: IC50_Mean"}, "[3]": {"target": "T2, Corticotropin-releasing factor receptor 2/Corticotropin-releasing factor-binding protein (Homo sapiens, UniProt P24387+Q13324)", "T2 sequence (Q13324 whole entry)": "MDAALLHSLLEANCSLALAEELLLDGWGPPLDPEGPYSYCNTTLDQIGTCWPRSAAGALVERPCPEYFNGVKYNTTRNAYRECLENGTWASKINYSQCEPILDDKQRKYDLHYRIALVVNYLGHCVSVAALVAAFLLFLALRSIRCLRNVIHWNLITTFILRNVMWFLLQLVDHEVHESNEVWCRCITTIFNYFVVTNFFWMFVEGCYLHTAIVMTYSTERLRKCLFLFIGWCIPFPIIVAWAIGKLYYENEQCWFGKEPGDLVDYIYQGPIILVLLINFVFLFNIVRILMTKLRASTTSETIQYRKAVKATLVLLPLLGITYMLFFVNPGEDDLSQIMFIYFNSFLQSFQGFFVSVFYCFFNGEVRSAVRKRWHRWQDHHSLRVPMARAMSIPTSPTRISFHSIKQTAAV", "T2 sequence (P24387 whole entry)": "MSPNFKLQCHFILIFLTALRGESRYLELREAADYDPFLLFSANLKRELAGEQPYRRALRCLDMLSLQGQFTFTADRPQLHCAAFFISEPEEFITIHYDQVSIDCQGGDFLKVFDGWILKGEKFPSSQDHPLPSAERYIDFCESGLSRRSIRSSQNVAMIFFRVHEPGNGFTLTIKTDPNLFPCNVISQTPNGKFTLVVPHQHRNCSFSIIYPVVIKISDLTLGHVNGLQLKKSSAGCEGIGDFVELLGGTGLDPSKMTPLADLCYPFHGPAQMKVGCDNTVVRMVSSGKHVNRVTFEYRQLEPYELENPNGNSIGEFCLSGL", "assay": "activators of CRF receptor 2 with binding protein – uHTS hits, confirmation (AID 602473)", "assay_type": "functional", "details": "read-out: EC50_Mean"}, "[4]": {"target": "T3, Rac GTPase-activating protein 1 (Homo sapiens, UniProt Q9H0H5)", "T3 sequence (Q9H0H5 whole entry)": "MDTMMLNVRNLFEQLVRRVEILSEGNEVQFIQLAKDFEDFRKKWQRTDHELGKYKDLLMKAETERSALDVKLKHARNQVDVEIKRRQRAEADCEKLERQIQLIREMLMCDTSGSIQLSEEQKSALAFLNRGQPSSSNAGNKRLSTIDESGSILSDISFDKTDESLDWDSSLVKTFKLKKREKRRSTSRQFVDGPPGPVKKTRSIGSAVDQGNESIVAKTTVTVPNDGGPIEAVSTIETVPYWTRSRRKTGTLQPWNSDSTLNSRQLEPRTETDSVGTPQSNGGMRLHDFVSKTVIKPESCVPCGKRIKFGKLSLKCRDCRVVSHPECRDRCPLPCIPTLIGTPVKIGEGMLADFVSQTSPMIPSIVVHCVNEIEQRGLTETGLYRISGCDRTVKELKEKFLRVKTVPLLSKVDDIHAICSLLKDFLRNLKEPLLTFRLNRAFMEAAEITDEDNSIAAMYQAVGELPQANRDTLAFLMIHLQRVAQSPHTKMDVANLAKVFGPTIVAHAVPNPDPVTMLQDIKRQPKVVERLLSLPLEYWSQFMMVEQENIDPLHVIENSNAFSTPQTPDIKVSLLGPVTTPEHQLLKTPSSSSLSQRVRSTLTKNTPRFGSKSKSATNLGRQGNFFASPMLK", "assay": "blockers of MgcRacGAP-driven Rac1 GTP hydrolysis – biochemical, ADP Hunter fluorescence, primary and confirmatory, confirmation (AID 624330)", "assay_type": "functional"}, "[5]": {"target": "T2, Corticotropin-releasing factor receptor 2/Corticotropin-releasing factor-binding protein", "assay": "Dose Response confirmation of uHTS hits for small molecule antagonists of the CRF-binding protein and CRF-R2 receptor complex.", "assay_type": "functional", "details": "read-out: IC50_Mean"}, "[6]": {"assay": "blockers of CRF-binding protein–CRF-R2 complex – cell-based, uHTS hits, 384-well, dose response (AID 651639)", "assay_type": "functional, Homo sapiens", "details": "read-out: IC50_Mean"}, "[7]": {"target": "T4, Methionyl-tRNA synthetase, putative (Trypanosoma brucei brucei, UniProt Q38C91)", "T4 sequence (Q38C91 whole entry)": "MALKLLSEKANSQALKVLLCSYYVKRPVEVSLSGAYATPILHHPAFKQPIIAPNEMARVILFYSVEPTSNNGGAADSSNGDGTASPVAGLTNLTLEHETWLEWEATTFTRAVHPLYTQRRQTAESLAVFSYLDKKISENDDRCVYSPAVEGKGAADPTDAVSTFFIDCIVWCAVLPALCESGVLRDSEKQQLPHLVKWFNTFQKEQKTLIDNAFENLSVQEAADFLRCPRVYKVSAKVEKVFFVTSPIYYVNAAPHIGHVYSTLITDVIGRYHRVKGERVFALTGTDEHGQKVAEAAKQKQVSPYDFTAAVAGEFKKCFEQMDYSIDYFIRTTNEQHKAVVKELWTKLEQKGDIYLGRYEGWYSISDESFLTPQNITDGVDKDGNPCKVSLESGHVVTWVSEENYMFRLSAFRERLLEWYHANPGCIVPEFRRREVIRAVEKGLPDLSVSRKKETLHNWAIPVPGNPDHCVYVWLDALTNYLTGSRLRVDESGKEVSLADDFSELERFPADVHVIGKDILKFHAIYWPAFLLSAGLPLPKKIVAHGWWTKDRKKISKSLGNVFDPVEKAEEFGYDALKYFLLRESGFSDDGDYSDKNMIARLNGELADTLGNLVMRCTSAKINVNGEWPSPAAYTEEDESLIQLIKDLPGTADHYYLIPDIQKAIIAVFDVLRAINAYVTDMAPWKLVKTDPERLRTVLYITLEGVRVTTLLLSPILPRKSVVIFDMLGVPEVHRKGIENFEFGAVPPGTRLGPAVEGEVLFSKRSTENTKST", "assay_type": "functional, Trypanosoma brucei brucei strain 927/4 GUTat10.1"}, "[8]": {"assay": "Counterscreen for inhibitors of Trypanosoma brucei methionyl tRNA synthetase (MetRS): Luminescence-based cell-based high throughput dose response assay to identify compounds that are cytotoxic to Jurkat human T lymphocyte cells.", "assay_type": "functional"}, "[9]": {"target": "T4, Methionyl-tRNA synthetase, putative", "assay_type": "functional, Trypanosoma brucei brucei strain 927/4 GUTat10.1", "remark": "listed apart in the source"}, "[10]": {"assay": "Luminescence Cell-Based Dose Retest to Confirm Inhibitors of Cancer Stem Cells. [Related pubchem assays (depositor defined):AID2717, AID2721]", "assay_type": "functional", "details": "Homo sapiens"}, "[11]": {"assay": "viability loss of HMLE_sh_eGFP cells – cell-based, luminescence, counter-screen for HMLE_sh_ECad selective toxicity project, dose response (AID 463074);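 note: HMLE human mammary epithelial cells expressing control shRNA against eGFP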", "assay_type": "functional, Homo sapiens"}, "[12]": {"target": "Fructose-bisphosphate aldolase (Mycobacterium tuberculosis, UniProt P9WQA3)", "sequence (P9WQA3 whole entry)": "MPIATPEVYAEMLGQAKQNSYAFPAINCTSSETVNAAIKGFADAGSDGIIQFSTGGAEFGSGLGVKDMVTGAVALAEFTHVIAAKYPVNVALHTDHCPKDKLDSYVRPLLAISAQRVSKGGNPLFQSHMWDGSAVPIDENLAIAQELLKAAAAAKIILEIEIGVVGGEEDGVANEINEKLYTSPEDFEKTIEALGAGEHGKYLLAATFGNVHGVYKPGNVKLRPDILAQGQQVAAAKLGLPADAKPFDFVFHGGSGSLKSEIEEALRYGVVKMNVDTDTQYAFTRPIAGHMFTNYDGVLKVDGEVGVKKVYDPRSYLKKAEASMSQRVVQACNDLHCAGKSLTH", "assay": "Fluorescence-based biochemical high throughput dose response assay for inhibitors of the fructose-bisphosphate aldolase (FBA) of M. tuberculosis.", "assay_type": "functional"}, "Mu-type opioid receptor": {"target": "Mu-type opioid receptor (Homo sapiens, UniProt P35372)", "sequence (P35372 whole entry)": "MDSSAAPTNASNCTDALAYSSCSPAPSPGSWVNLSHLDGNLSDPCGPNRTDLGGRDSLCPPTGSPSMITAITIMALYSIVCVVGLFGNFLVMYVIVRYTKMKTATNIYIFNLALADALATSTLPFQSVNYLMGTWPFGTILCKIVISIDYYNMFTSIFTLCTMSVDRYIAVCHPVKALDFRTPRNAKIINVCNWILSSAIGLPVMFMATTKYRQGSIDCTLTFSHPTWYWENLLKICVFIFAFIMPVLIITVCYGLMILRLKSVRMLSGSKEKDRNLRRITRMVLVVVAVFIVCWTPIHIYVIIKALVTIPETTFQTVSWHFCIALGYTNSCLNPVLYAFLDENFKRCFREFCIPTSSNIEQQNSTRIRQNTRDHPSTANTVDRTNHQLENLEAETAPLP", "assay_type": "functional, cell-based"}},
  "note": "Structures can show the parent of a compound that is named as a salt. Active and inactive are the calls of the source.",
  "data": [
    {"molecule": "CN(C)CCNc1cccc2sc3ccc(O)cc3c(=O)c12", "values": [
      {"measurement": "IC50", "setting": "[1]", "result": "26 µM (inactive)"},
      {"measurement": "IC50", "setting": "[2]", "result": "37.8 µM (inactive)"}
    ]},
    {"molecule": "CCOc1cc(/C=N/NC(=O)c2ccccc2OCc2ccc(F)cc2)ccc1O", "values": [
      {"measurement": "EC50", "setting": "[3]", "result": "> 53 µM (inactive)"},
      {"measurement": "IC50", "setting": "[4]", "result": "78.5 µM (active)"},
      {"measurement": "IC50", "setting": "[5]", "result": "4.05 µM (active)"},
      {"measurement": "IC50", "setting": "[6]", "result": "> 20 µM (inactive)"}
    ]},
    {"molecule": "O=C(COc1ccc(Cl)cc1Cl)N/N=C/c1ccc[nH]1", "values": [
      {"measurement": "IC50", "setting": "[7]", "result": "13.2 µM (inactive)"},
      {"measurement": "IC50", "setting": "[8]", "result": "22.2 µM (inactive)"},
      {"measurement": "IC50", "setting": "[9]", "result": "22.4 µM (inactive)"},
      {"measurement": "AC50", "setting": "[10]", "result": "1.92 µM (active)"},
      {"measurement": "AC50", "setting": "[11]", "result": "20.7 µM (active)"}
    ]},
    {"molecule": "Cc1c(C)c2cc(Cl)c(OCC(=O)NCCCN3CCCC3=O)cc2oc1=O", "values": [
      {"measurement": "IC50", "setting": "[12]", "result": "3.71 µM (active)"}
    ]},
    {"molecule": "COc1ccc(NC(=O)C2(C)Cc3c(-c4ccc(N(C)C)cc4)ccnc3O2)cc1OC", "note": "(centres undefined)", "values": [
      {"measurement": "IC50", "setting": "[12]", "result": "0.731 µM (active)"}
    ]},
    {"molecule": "CC(CCc1ccc(O)cc1)NCCc1ccc(O)c(O)c1", "note": "(centres undefined) [DOBUTAMINE HYDROCHLORIDE]", "values": [
      {"measurement": "EC50", "setting": "Mu-type opioid receptor", "result": "92.5 µM (inactive)"}
    ]}
  ]
}
